# Laboratory results published in patent US7253211B2, “(R)-chiral halogenated substituted fused heterocyclic amino compounds useful for inhibiting cholesterol ester transfer protein activity” (Pfizer Inc., priority 1999, dated 2007).
# What was measured:
# CETP = experiment: Assay of CETP Inhibition In Vivo: CETP-mediated transfer in hamster; design: species or system golden Syrian hamsters; conditions: single oral dose 10 mpk
# Procedure: Assay of CETP Inhibition In Vivo.
# Male golden Syrian hamsters were maintained on a diet of chow containing 0.24% cholesterol for at least two weeks prior to the study. For animals receiving intravenous dosing immediately before the experiment, animals were anesthetized with pentobarbital. Anesthesia was maintained throughout the experiment. In-dwelling catheters were inserted into the jugular vein and carotid artery. At the start of the experiment all animals received 0.2 mL of a solution containing [^3H]CE-HDL into the jugular vein. […] After centrifugation, the resulting supernatant (25 μL) containing the HDL was analyzed for radioactivity using a liquid scintillation counter.
# (§1) The percentage [^3H]CE transferred from HDL to LDL and VLDL (% transfer) was calculated based on the total radioactivity in equivalent plasma samples before precipitation.
# Alternatively, conscious, non-anesthetized animals received an oral gavage dose of test compound as a suspension in 0.1% methyl cellulose in water. At a time determined for each compound at which plasma levels of the test substance reached their peak (Cmax) after oral dosing, the animals were anesthetized with pentobarbital and then dosed with 0.2 mL of a solution containing [^3H]CE-HDL into the jugular vein as described above. […]
# human CETP (hCETP) = molecular target: T1, human CETP (hCETP) (Homo sapiens, UniProt P11597); experiment: Assay of CETP Inhibition In Vivo: CETP-mediated transfer in hCETP mice; conditions: single oral dose 60 mpk
# T1 construct: expressed in transfected cells; host or cells: transgenic C57Bl/6 mice homozygous for the hCETP gene
# T1 sequence (P11597 18-493): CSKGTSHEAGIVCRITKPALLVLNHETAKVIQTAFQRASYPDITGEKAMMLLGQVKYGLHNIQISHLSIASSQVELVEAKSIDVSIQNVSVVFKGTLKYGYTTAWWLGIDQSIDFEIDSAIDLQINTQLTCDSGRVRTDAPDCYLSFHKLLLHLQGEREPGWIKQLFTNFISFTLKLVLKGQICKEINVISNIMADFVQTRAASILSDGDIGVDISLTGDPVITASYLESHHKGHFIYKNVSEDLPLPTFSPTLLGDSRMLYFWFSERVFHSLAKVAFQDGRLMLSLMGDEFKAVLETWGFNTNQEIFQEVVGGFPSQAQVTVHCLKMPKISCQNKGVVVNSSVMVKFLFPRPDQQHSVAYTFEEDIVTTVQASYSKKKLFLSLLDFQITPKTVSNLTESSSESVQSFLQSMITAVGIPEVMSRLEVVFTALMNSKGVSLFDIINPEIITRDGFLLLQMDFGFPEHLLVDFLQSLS
# From the text: C57B1/6 mice that were homozygous for the hCETP gene were maintained on a high fat chow diet, such as TD 88051, as described by Nishina et al. (J Lipid Res., 31, 859-869 (1990)) for at least two weeks prior to the study. Mice received an oral gavage dose of test compound as a suspension in 0.1% methyl cellulose in water or an intravenous bolus injection of test compound in 10% ethanol and 90% polyethylene glycol. Control animals received the vehicle solution without test compound by oral gavage or by an intravenous bolus injection. At the start of the experiment all animals received 0.05 mL of a solution containing [^3H]CE-HDL into the tail vein. [^3H]CE-HDL is a preparation of human HDL containing tritium-labeled cholesteryl ester, and was prepared according to the method of Glenn et al. (Meth. Enzymol., 263, 339-351 (1996)). After 30 minutes, the animals were exsanguinated and blood collected in standard microtainer tubes containing ethylenediamine tetraacetic acid. Blood samples were mixed well and kept on ice until the completion of the experiment. […] The plasma was separated and analyzed by gel filtration chromatography and the relative proportion of [^3H]CE in the VLDL, LDL and HDL regions was determined.
# as §1
# plasma HDL [1] = experiment: Assay of Plasma HDL Elevation In Vivo: lipoprotein profile in hamster; design: species or system Syrian Golden hamsters; conditions: oral dose 30 mpk qd, 5 days
# Procedure: Assay of Plasma HDL Elevation In Vivo.
# Syrian Golden hamsters were made hypercholesterolemic by feeding cholesterol supplemented chow for a minimum of two weeks, as described above. Test compounds were administered orally in selected aqueous or oil based vehicles for up to 1 week. Serum was obtained and analyzed by precipitation or size exclusion chromatography for the relative abundance of VLDL, LDL and HDL.
# plasma HDL [2] = experiment: Assay of Plasma HDL Elevation In Vivo: lipoprotein profile in hCETP mice; design: species or system C57b1 mouse expressing human CETP; conditions: oral dose 30 mpk qd, 5 days
# Procedure: Alternatively, a strain of C57b1 mouse was made to transgenicaly express human CETP. […] The hCETP mice were made hypercholesterolemic by feeding cholesterol and fat supplemented chow for a minimum of two weeks, as described above. Test compounds were administered orally in selected aqueous or oil based vehicles for up to 1 week. Serum was obtained and analyzed by size exclusion chromatography for the relative abundance of VLDL, LDL and HDL.
# plasma HDL [3] = experiment: Assay of Plasma HDL Elevation In Vivo: cynomologous monkeys; conditions: oral gavage 10 mpk q.d. up to 11 days, corn oil based vehicle
# Procedure: Alternatively, cynomologous monkeys were maintained on a normal chow diet. […] Plasma levels of drug were detected throughout the experiment in treated animals at ranges of 0.1-1.5 μg/mL. Periodically, plasma samples were taken and analyzed for total cholesterol and HDL.
# plasma HDL [4] = experiment: Assay of Plasma HDL Elevation In Vivo: rabbits
# Procedure: Alternatively, rabbits were maintained on a normal chow diet. […] Plasma concentrations of drug were detected throughout the duration of the pump infusion in treated animals and averaged 1.2 μg/mL. Periodically, plasma samples were taken and analyzed for triglycerides, total cholesterol, and HDL.
# [5] = Alzet pump 30 mg/day/animal, after fourteen days
structure (smiles),measurement,setting,value
"CCc1cc(Oc2cccc(N(Cc3cccc(OC(F)(F)C(F)F)c3)C[C@@H](O)C(F)(F)F)c2)ccc1Cl [Example 8, (2R)-3-[[3-(4-chloro-3-ethylphenoxy)phenyl][[3-(1,1,2,2-tetrafluoro-ethoxy)phenyl]methyl]amino]-1,1,1-trifluoro-2-propanol]",% Inhibition of Transfer,CETP,35%
same,inhibition at 60 mg/kg,human CETP (hCETP),40%
same,% Change in Lipoprotein Profile HDL,plasma HDL [1],12%
same,% Change in Lipoprotein Profile LDL,plasma HDL [1],−12%
same,% Change in Lipoprotein Profile VLDL,plasma HDL [1],−22%
same,% Change in Lipoprotein Profile HDL,plasma HDL [2],12%
same,% Change in Lipoprotein Profile LDL,plasma HDL [2],20%
same,Plasma levels of drug,plasma HDL [3],100 to 1500 ng/mL
same,Plasma concentrations of drug (average),"plasma HDL [4]; Alzet pump 30 mg/day/animal up to 14 days, ethanol:propylene glycol vehicle",1200 ng/mL
same,decrease in HDL compared to pre-dose levels,plasma HDL [4]; [5],12%
same,decrease in total cholesterol compared to pre-dose levels,plasma HDL [4]; [5],19%
same,increase in triglycerides compared to pre-dose levels,plasma HDL [4]; [5],17%
